Target: Adenosine receptor A2a (Rattus norvegicus, UniProt P30543)
Test: Binding affinity was determined in radioligand binding assay at rat striatal Adenosine A2A receptor vs [3H]-CGS- 21680

Sequence of Adenosine receptor A2a (P30543 whole entry): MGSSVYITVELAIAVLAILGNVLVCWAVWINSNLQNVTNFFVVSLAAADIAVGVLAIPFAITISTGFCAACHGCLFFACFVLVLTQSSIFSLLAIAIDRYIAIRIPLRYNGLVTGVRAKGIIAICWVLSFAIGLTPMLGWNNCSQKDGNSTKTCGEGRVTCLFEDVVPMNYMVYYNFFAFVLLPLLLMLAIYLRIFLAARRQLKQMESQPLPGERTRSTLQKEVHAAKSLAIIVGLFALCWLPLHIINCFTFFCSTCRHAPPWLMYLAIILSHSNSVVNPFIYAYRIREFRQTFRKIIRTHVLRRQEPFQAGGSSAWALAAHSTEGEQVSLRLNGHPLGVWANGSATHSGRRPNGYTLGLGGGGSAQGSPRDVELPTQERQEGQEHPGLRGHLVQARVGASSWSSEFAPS

SMILES: CCOC(=O)C1C(C)=NC(c2ccccc2)=C(C(=O)OCc2ccccc2)C1C#Cc1ccccc1 (stereo unspecified) [CAS_393594]
- Ki: > 100 nM

— BindingDB's records for doi:10.1021/jm980094b (National Institute of Diabetes, 1998)
